Data published in ChEMBL document CHEMBL3885881, “DrugMatrix”.

Species on record: Rattus norvegicus
Test: DrugMatrix - Regimen: Daily Repeat
Type: toxicity, organism-based, Sprague-Dawley
Design: regimen Daily Repeat, gender Male, age 6-8 weeks
Settings: in vivo, po, 2500 mg/kg, route oral GAVAGE, dose level High, vehicle 100 % WATER; for ABSOLUTE BASOPHIL / ABSOLUTE EOSINOPHIL / ABSOLUTE LYMPHOCYTE / ABSOLUTE MONOCYTE / ABSOLUTE SEGMENTED NEUTROPHIL / BASOPHIL / EOSINOPHIL / ERYTHROCYTE COUNT / HEMATOCRIT / HEMOGLOBIN / LEUKOCYTE COUNT / LYMPHOCYTE / MEAN CORPUSCULAR HEMOGLOBIN / MEAN CORPUSCULAR HEMOGLOBIN CONCENTRATION / MEAN CORPUSCULAR VOLUME / MONOCYTE / NEUTROPHIL / NUCLEATED RED BLOOD CELLS / PLATELET COUNT: tissue Blood; for ALANINE AMINOTRANSFERASE / ALBUMIN / ALKALINE PHOSPHATASE / ASPARTATE AMINOTRANSFERASE / BLOOD UREA NITROGEN / CARBON DIOXIDE / CHLORIDE / CHOLESTEROL / CREATINE PHOSPHOKINASE / CREATININE / GLUCOSE / LACTATE DEHYDROGENASE / LIPASE / PHOSPHORUS / POTASSIUM / SODIUM / TOTAL BILIRUBIN / TOTAL PROTEIN / URIC ACID: tissue Plasma

CCN(CC)CCOC(=O)c1ccc(N)cc1 [PROCAINE]
ABSOLUTE BASOPHIL (72 h, time 3 day): 0 CELLS/uL
ABSOLUTE EOSINOPHIL (72 h, time 3 day): 0 CELLS/uL
ABSOLUTE LYMPHOCYTE (72 h, time 3 day): 12849.67 CELLS/uL
ABSOLUTE MONOCYTE (72 h, time 3 day): 127.33 CELLS/uL
ABSOLUTE SEGMENTED NEUTROPHIL (72 h, time 3 day): 789.67 CELLS/uL
BASOPHIL (72 h, time 3 day): 0%
EOSINOPHIL (72 h, time 3 day): 0%
ERYTHROCYTE COUNT (72 h, time 3 day): 5.53 x10E6/uL
HEMATOCRIT (72 h, time 3 day): 34.97%
HEMOGLOBIN (72 h, time 3 day): 13.83 G/DL
LEUKOCYTE COUNT (72 h, time 3 day): 13.77 x10E3/uL
LYMPHOCYTE (72 h, time 3 day): 93.33%
MEAN CORPUSCULAR HEMOGLOBIN (72 h, time 3 day): 24.97 pg
MEAN CORPUSCULAR HEMOGLOBIN CONCENTRATION (72 h, time 3 day): 39.63 G/DL
MEAN CORPUSCULAR VOLUME (72 h, time 3 day): 63.1 fL
MONOCYTE (72 h, time 3 day): 1%
NEUTROPHIL (72 h, time 3 day): 5.67%
NUCLEATED RED BLOOD CELLS (72 h, time 3 day): 0 /100WBC
PLATELET COUNT (72 h, time 3 day): 1276.67 x10E3/uL
ALANINE AMINOTRANSFERASE (72 h, time 3 day): 52.33 u/L
ALBUMIN (72 h, time 3 day): 4.3 G/DL
ALKALINE PHOSPHATASE (72 h, time 3 day): 353.67 u/L
ASPARTATE AMINOTRANSFERASE (72 h, time 3 day): 121.67 u/L
BLOOD UREA NITROGEN (72 h, time 3 day): 13.67 mg/dL
CARBON DIOXIDE (72 h, time 3 day): 25.33 mmol/L
CHLORIDE (72 h, time 3 day): 103.33 MEQ/L
CHOLESTEROL (72 h, time 3 day): 42.33 mg/dL
CREATINE PHOSPHOKINASE (72 h, time 3 day): 550.67 u/L
CREATININE (72 h, time 3 day): 0.21 mg/dL
GLUCOSE (72 h, time 3 day): 173 mg/dL
LACTATE DEHYDROGENASE (72 h, time 3 day): 675.33 u/L
LIPASE (72 h, time 3 day): 9 u/L
PHOSPHORUS (72 h, time 3 day): 14.53 mg/dL
POTASSIUM (72 h, time 3 day): 7.06 MEQ/L
SODIUM (72 h, time 3 day): 146.03 MEQ/L
TOTAL BILIRUBIN (72 h, time 3 day): 0.17 mg/dL
TOTAL PROTEIN (72 h, time 3 day): 5.9 G/DL
URIC ACID (72 h, time 3 day): 2.57 mg/dL
ABSOLUTE BASOPHIL (120 h, time 5 day): 0 CELLS/uL
ABSOLUTE EOSINOPHIL (120 h, time 5 day): 0 CELLS/uL
ABSOLUTE LYMPHOCYTE (120 h, time 5 day): 14457.33 CELLS/uL
ABSOLUTE MONOCYTE (120 h, time 5 day): 61 CELLS/uL
ABSOLUTE SEGMENTED NEUTROPHIL (120 h, time 5 day): 915 CELLS/uL
BASOPHIL (120 h, time 5 day): 0%
EOSINOPHIL (120 h, time 5 day): 0%
ERYTHROCYTE COUNT (120 h, time 5 day): 6.15 x10E6/uL
HEMATOCRIT (120 h, time 5 day): 37.43%
HEMOGLOBIN (120 h, time 5 day): 14.7 G/DL
LEUKOCYTE COUNT (120 h, time 5 day): 15.43 x10E3/uL
LYMPHOCYTE (120 h, time 5 day): 93.33%
MEAN CORPUSCULAR HEMOGLOBIN (120 h, time 5 day): 23.93 pg
MEAN CORPUSCULAR HEMOGLOBIN CONCENTRATION (120 h, time 5 day): 39.3 G/DL
MEAN CORPUSCULAR VOLUME (120 h, time 5 day): 60.87 fL
MONOCYTE (120 h, time 5 day): 0.33%
NEUTROPHIL (120 h, time 5 day): 6.33%
NUCLEATED RED BLOOD CELLS (120 h, time 5 day): 0 /100WBC
PLATELET COUNT (120 h, time 5 day): 1379 x10E3/uL
ALANINE AMINOTRANSFERASE (120 h, time 5 day): 40 u/L
ALBUMIN (120 h, time 5 day): 4.73 G/DL
ALKALINE PHOSPHATASE (120 h, time 5 day): 323.33 u/L
ASPARTATE AMINOTRANSFERASE (120 h, time 5 day): 94 u/L
BLOOD UREA NITROGEN (120 h, time 5 day): 17 mg/dL
CARBON DIOXIDE (120 h, time 5 day): 26 mmol/L
CHLORIDE (120 h, time 5 day): 101.67 MEQ/L
CHOLESTEROL (120 h, time 5 day): 33.67 mg/dL
CREATINE PHOSPHOKINASE (120 h, time 5 day): 281 u/L
CREATININE (120 h, time 5 day): 0.24 mg/dL
GLUCOSE (120 h, time 5 day): 166.67 mg/dL
LACTATE DEHYDROGENASE (120 h, time 5 day): 198.33 u/L
LIPASE (120 h, time 5 day): 9.67 u/L
PHOSPHORUS (120 h, time 5 day): 12.67 mg/dL
POTASSIUM (120 h, time 5 day): 7.55 MEQ/L
SODIUM (120 h, time 5 day): 143.33 MEQ/L
TOTAL BILIRUBIN (120 h, time 5 day): 0.2 mg/dL
TOTAL PROTEIN (120 h, time 5 day): 6.67 G/DL
URIC ACID (120 h, time 5 day): 2 mg/dL
